# Columns and labels:
# [1] = in vivo; cited from earlier work
# [2] = system: brush border membrane bounded enzymes; assay: Enzyme inhibition study: enzymatic degradation of insulin versus time; format: biochemical; details: 5 mg/ml; insulin 1 mg/ml; up to 2 hours
# Excerpt: Brush border membrane bounded enzymes were used to simulate a contacting membrane at the bottom of a donor compartment, wherein the insulin-loaded medium (Krebs-Ringer buffer) in the donor compartment was used as the starting material at time zero. Three elements were used in this enzyme inhibition study to assess the enzymatic degradation of insulin versus time by brush border membrane bounded enzymes.
# [3] = 20° C.; cited from earlier work
# [4] = cited from earlier work
# [5] = insulin from bovine pancreas (Sigma-Aldrich); cited from earlier work
# diabetic rats [6] = assay: Hypoglycemic effect in diabetic rats (Example no. 10); format: in vivo, Wistar male rats
# Method: In the in vivo study, rats were injected with streptozotocin (STZ 75 mg/kg intraperitoneal) in 0.01M citrate buffer (pH 4.3) to induce diabetes. The blood from the rat's tail was analyzed with a commercially available glucometer for blood glucose. The blood glucose level on Wistar male rats at no fasting (n=5) was measured at 107.2±8.1 mg/dL for normal rats while the blood glucose level was at 469.7±34.2 mg/dL for diabetic rats. In the animal study, diabetic rats were fasting for 12 hours and subjected to four different conditions: (a) oral deionized water (DI) administration; (b) oral insulin administration at 30 U/kg; (c) oral insulin-loaded nanoparticles administration at 30 U/kg; and (d) subcutaneous (SC) insulin injection at 5 U/kg as positive control. The blood glucose concentration from rat's tail was measured over the time in the study.
# It is illustrative that substantially all insulin from the oral administration route has been decomposed in rat stomach. As anticipated, the glucose decrease for the SC insulin injection route appears in rat blood in the very early time interval and starts to taper off after 3 hours in this exemplary study.
# The most important observation of the study comes from the oral administration route with insulin-loaded nanoparticles. […]
# diabetic rats [7] = assay: Freeze-dried nanoparticles in enteric-coated capsule in diabetic rats (Example no. 19); format: in vivo; details: SC injection 5 U/kg
# Method: In the in vivo study, rats as prepared and conditioned according to Example no. 10 were used in this evaluation. […] The blood glucose concentration from rat's tail was measured over time.
# As anticipated, the glucose decrease for the SC insulin injection method is evident in rat blood at a very early time interval starts to taper off after 2 hours, and ends at about 6 hours in this exemplary study. The most important observation of the study comes from the oral administration route with insulin-loaded lyophilized (namely, freeze-dried) nanoparticles. Nanoparticles of this example have an insulin LC at 4.4%, whereas nanoparticles from Example no. […] With the same amount of nanoparticles in both examples, the insulin-feeding ratio of Example no. 19 to Example no. 10 is about 1:3. In other words, the insulin fed to a rat in this study from nanoparticles is about ⅓ of the insulin from nanoparticles fed to rats in Example no. 10.
# The blood glucose begins to decrease from the base line at about 3 hours after administration and sustains a lower glucose level for more than 10 hours into study. It implies that the current insulin-loaded nanoparticles may modulate the glucose level in animals in a sustained or prolonged effective mode. […]
compound,measurement,setting,value
21^A-Gly-30^Ba-L-Arg-30^Bb-L-Arg-human insulin [Insulin glargine],duration of activity,[1],up to 24 hours
"O=C(O)CN(CCN(CC(=O)O)CC(=O)O)CCN(CC(=O)O)CC(=O)O [DTPA, Diethylene triamine pentaacetic acid]",protection of insulin activity or viable content against enzymatic degradation,[2],substantially protect or maintain the insulin activity or viable content
"OC[C@H]1O[C@H](O[C@H]2O[C@H](CO)[C@@H](O)[C@H](O)[C@H]2O)[C@H](O)[C@@H](O)[C@@H]1O [Trehalose, α-D-glucopyranosyl-(1→1)-α-D-glucopyranoside]",solubility,[3],68.9 g/100 g H2O
Drotrecogin alfa (activated),time to peak plasma levels,[4]; i.v. dosage guidelines,two
same,time to complete clearance from plasma after termination of infusion,[4]; i.v. infusion,two
"insulin: model insulin from bovine pancreas (Sigma-Aldrich), given orally or by SC injection as controls",activity,[5],≥ 27 USP units/mg
same,time after which glucose decrease starts to taper off,diabetic rats [6]; SC injection 5 U/kg,3 h
same,glucose change as a percentage of base lines,"diabetic rats [6]; oral 30 U/kg, over 8 hours, n=5",relatively constant
same,time after which glucose decrease starts to taper off,diabetic rats [7],2 h
same,time at which glucose decrease ends,diabetic rats [7],about 6 hours
